Experimental data reported in patent US20020019336A1, “Sustained release drug compositions” (priority 2000, published 2002).

Tested on: neovascularization
Assay: neovascularization after subcutaneous injection or implantation in rats
Type: in vivo
Settings: back subcutaneous tissue, seven days after administration, 1 μg bFGF
Protocol: The compositions listed in Table 1 below were generated essentially according to Example 9, with modifications as indicated.
All compositions, including controls, were injected or implanted into the back subcutaneous tissue of rats. It was known that bFGF promotes neovascularization. Seven days after administration, each rat was evaluated for neovascularization at the area peripheral to the site of injection or implantation.
To distinguish newly synthesized blood vessels from pre-existing ones, lipid microspheres were injected into […] just superficial to the pre-existing capillary bed early in the experiment (at day 0). At the end of the experiment, the neovascular capillaries, if any, would reside superficial to the microspheres. Thus, new capillaries were easily identified by seeing whether there was vascularization above (superficial to) the microspheres at the end of the experiment.

basic fibroblast growth factor [bFGF alone]
neovascularization at area peripheral to site of injection or implantation: no neovascularization
